Source: patent US20170027954A1, “METHODS OF ENHANCING ANTIBODY-DEPENDENT CELLULAR CYTOTOXICITY” (VENTIRX PHARMACEUTICALS, INC., priority 2010, published 2017)

Assays:
Assay type in all cases: cell-based, human
[1] = test system: breast cancer cell line SKBR3; experiment: Herceptin-mediated ADCC of SKBR3 cells by PBMC effector cells; conditions: PBMCs activated with the ADCC enhancer; FIG. 3
Protocol: (§1) Stimulation of PBMCs: Human Peripheral blood mononuclear cells (PBMCs) were isolated by Ficoll™ density gradient centrifugation and resuspended in RPMI containing 2% heat-inactivated FBS. PBMCs at a concentration of 1 to 3 million cells per mL were incubated with 10-500 nM ADCC enhancer in a humidified CO2 incubator for 18-72 hrs. Activated PBMCs were then used as effector cells in NK and ADCC assays. NK and ADCC Assays: PBMCs activated with the ADCC enhancer were tested for the ability to enhance killing of the NK sensitive target cell line K562 or various tumor cells coated with monoclonal antibodies. Target cells were labeled with the fluorescent dye Calcein AM for 1 hour at 37° C. in a dark humidified CO2 incubator. […] Activated effector cells and labeled target cells were incubated in 96-well tissue culture plates at for 4 hours at 37° C. in a dark humidified CO2 incubator in an assay buffer containing HBSS+Ca/Mg+5% FBS. […] Fluorecence was quantified with a fluorescent microtiter plate reader. The % specific lysis was calculated as (Sample fluorescence-spontaneous fluorescence)*100/(100% fluorescence-spontaneous). 100% fluorescence was determined from wells that contained labeled target cells and detergent such at 0.1% Tween-20 or Triton X-100. Spontaneous fluorescence was determined from wells that contained assay buffer and target cells but not effector cells.

[2] = test system: K562 target cells; experiment: NK assay: lysis of Calcein AM labeled K562 target cells by PBMCs stimulated with the ADCC enhancer; conditions: FIG. 1
Protocol: as §1, with “cells. […]” for “cells.”

[3] = test system: breast cancer cell line MDA-MB-231; experiment: Herceptin-mediated ADCC of MDA-MB-231 cells by PBMC effector cells; conditions: PBMCs activated with the ADCC enhancer; FIG. 3
Protocol: as §1

[4] = test system: rituximab-coated HS-Sultan cells; experiment: Rituximab-mediated ADCC of HS-Sultan cells with PBMCs from FcγR-genotyped donors; conditions: for rituximab-mediated ADCC, specific lysis: ratio 100:1, FIG. 5; for baseline ADCC (percent specific lysis): buffer control
Protocol: Percent specific lysis is shown for Rituxan-coated HS-Sultan cells incubated with PBMC effector cells at an E:T ratio of 50:1. PBMCs from a patient with the high affinity genotype FcgR2a131 H/H and FcgR3a V/V (solid rectangles) or a patient with the lower affinity genotype FcgR2a131 […] and FcgR3a V/F (open rectangles) were evaluated for ADCC after stimulation with buffer control (baseline) or stimulation with 500 nM ADCC enhancer.
ADCC is mediated through immune effector cells included NK cells that engage the Fc portion of the monoclonal antibody through specific receptors. Patients with single nucleotide polymorphisms in these receptors such as FcRgamma3a position 158 and FcRgamma2a position 131 have a poorer clinical prognosis presumably from poor ADCC due to a lower affinity of the receptor for the monoclonal antibody. […] To determine if this common polymorphism affects the baseline antibody-dependent cellular cytoxicity (ADCC) response and/or response to the ADCC enhancer molecule of the present invention (Compound VTX-2337), PBMCs from donors were genotyped for the two alleles encoding the F and V isoforms, respectively, and tested in vitro. We analyzed rituximab-mediated ADCC using unstimulated PBMC or VTX-2337-stimulated PBMC from 15 donors, including 10 donors with FF or FV phenotype and 5 donors with VV phenotype.
Blood was collected from healthy donors and PBMCs were isolated using a Ficoll gradient. PBMCs were activated by culturing them in the presence of 500 nM VTX-2337 at 37° C. in a humidified 5%CO2 incubator for 48 hours. Activated PBMCs were then incubated with rituximab-coated HS-Sultan cells loaded at a ratio of 100:1 for 4 hours. Lysis was determined by measuring release of the fluorescent dye Calcein AM from the HS-Sultan cells.

## CCCN(CCC)C(=O)C1=Cc2ccc(-c3ccc(C(=O)N4CCCC4)cc3)cc2N=C(N)C1 [ADCC enhancer, {2-amino-8-[4-(pyrrolidinylcarbonyl)phenyl]-(3H-benzo[f]azepin-4-yl)}-N,N-dipropylcarboxamide]
[1]
  cell killing of Herceptin coated SKBR3 cells: > 80%
[2]; PBMCs stimulated with 167 nM ADCC enhancer
  lysis of K562 target cells: up to 45%
[2]; PBMCs stimulated with 500 nM ADCC enhancer
  lysis of K562 target cells: greater than 90%
[3]
  cell killing of Herceptin coated MDA-MB-231 cells: 40-60%
[4]; PBMC from high affinity VV donors stimulated with 500 nM VTX-2337 for 48 hours
  rituximab-mediated ADCC, specific lysis: 55.5±2.6%
[4]; PBMC from low affinity FF/FV donors stimulated with 500 nM VTX-2337 for 48 hours
  rituximab-mediated ADCC, specific lysis: 40.0±4.1%
[4]; patient with low affinity genotype, PBMCs stimulated with 500 nM ADCC enhancer, Rituxan-coated targets, E:T 50:1, FIG. 4
  ADCC (percent specific lysis): 30%

## Rituxan: monoclonal antibody against the protein CD20
[4]; patient with high affinity genotype, E:T 50:1, FIG. 4
  baseline ADCC (percent specific lysis): approximately 30%
[4]; patient with lower affinity genotype, E:T 50:1, FIG. 4
  baseline ADCC (percent specific lysis): 10%
[4]; unstimulated PBMC from FF/FV donors
  rituximab-mediated ADCC, specific lysis: 20.5±2.5%
[4]; unstimulated PBMC from VV donors
  rituximab-mediated ADCC, specific lysis: 31.7±2.9%
